Results published in publication PMC4433340 (PLoS Neglected Tropical Diseases, 2015).
Where two headings read alike, the source gives them in different places.

Legend:
T. cruzi epimastigotes = conditions: at concentrations in the millimolar range; cited from earlier work
[1] = tested on: 15-epi-lipoxin A4 production by T. cruzi-infected EA.hy926 cells; experiment: 15-epi-lipoxin A4 quantification by DSA-TOF MS in culture supernatants; type: cell-based, human; conditions: 5 μM simvastatin
Description: (§1) 8x10^5 EA.hy926 cells/well were cultured in 6-well plates (IMDM 10% SFB). […] 15-epi-LXA4 determination was performed by:
(§2) • ELISA assay: the supernatant from the cell cultures was assayed using a 15-epi-LXA4 BioAssay ELISA Kit (USBiological, USA) following manufacturer’s instructions. • AxION DSA—TOF MS determination: To determine 15-epi-lipoxin A4 levels in EAhy926 cell culture supernatants, an AxION Direct Sample Analysis (DSA) that was integrated with an AxION 2 time-of-flight (TOF) mass spectrometer (PerkinElmer, Shelton, CT, USA) was employed. For extraction, all of the samples were loaded onto a solid phase extraction and eluted with 1 mL chloroform three times successively. Then, the samples were transferred into a clean tube, and the chloroform in the samples was evaporated in a water bath. Finally, the samples were resuspended in 100 μL ethanol, and 10 μL were pipetted onto a stainless mesh. For the calibration curve, 15-epi-lipoxin A4 (cat#90415, Cayman Chemical, USA) was diluted in PBS to achieve different final concentrations (see S1 Fig). From each tube, 10 μL was pipetted onto a stainless mesh, and DSA—TOF determination was performed. The AxION DSA conditions were as follows: 5 μA corona current, 250°C heater temperature, 80 psi auxiliary gas (N2) pressure, 4 L/min drying gas (N2) flow, and 25°C drying gas (N2) temperature. […] Mass spectra were acquired with a mass range of 100–1000 m/z and an acquisition rate of 2 spectra/sec. To maintain mass accuracy, […] lock mass ions were used (m/z 119.0400, m/z 556.0000 and m/z 805.9900). All of the samples were analyzed for only 10 sec. The standards used were 15-epi-lipoxin A4 (cat#90415, Cayman Chemical,) and 5(S),6(R)-Lipoxin A4 methyl ester (cat#10033, Cayman Chemical) as an internal standard. These were confirmed in seconds by accurate mass and isotopic distribution of parent and fragment ions using DSA/TOF and AxION software, and compound identification was performed using the standards. All of the samples were analyzed in triplicate.

[2] = tested on: 15-epi-lipoxin A4 production by EA.hy926 cells; experiment: 15-epi-lipoxin A4 determination by ELISA in culture supernatants; type: cell-based, human; conditions: ELISA (Fig 7A); for 15-epi-LXA4 production in T. cruzi-infected endothelial cells: EA.hy926 infected 16 hours, drug added afterwards
Description: as §1, §2

Trypomastigotes Dm28c = experiment: Parasite viability by MTT reduction assay, trypomastigotes; type: cell-based; conditions: Trypanosoma cruzi, read-out: IC50, cellular viability, Trypomastigotes Dm28c
Description: T. cruzi trypomastigotes (Dm28c clone) from our collection, were obtained from infected EA.hy926 cells. Cells were exposed to trypomastigotes (Dm28c clone) at a multiplicity of infection (MOI) of 5. Trypomastigotes were allowed to infect cells for 24 hours, after which the supernatant was removed and fresh medium was added. Trypomastigotes were released from EA.hy926 cells after four days of infection. The parasites were harvested and collected for viability assays and further cell infections.
The effect of the drug on all cells and parasite viability was evaluated through the tetrazolium salt (MTT, Sigma-Aldrich) reduction assay as described. Drugs at concentrations ranging from 1 to 20 μM, dissolved in DMSO at a 0.025% v/v final concentration, were applied to 2.5x10^5 cells/mL or 10^6 parasite/mL culture medium. Cultures were incubated for 24 hours before adding MTT for 4 hours. The plates were incubated overnight with 10% SDS w/v in 0.01 M HCl at 37°C, and optical density (OD) was determined using a microplate reader (Labsystems Multiskan MS, Finland) at 570 nm. Under these conditions, the OD was directly proportional to viable cell number per well. All of the experiments were performed at least three times, and the data are shown as the means and their standard deviations from triplicate cultures.

[3] = tested on: NF-κB p65 in T. cruzi-infected EA.hy926 cells; experiment: Nuclear p65 localization by confocal microscopy; type: cell-based, human; conditions: 5 μM simvastatin or 20 μM benznidazole before T. cruzi 1 hour
Description: 2x10^4 EA.hy926 cells were seeded in Lab-Tek II Chamber Slides^TM for 12 hours. Cells were fixed in 3.7% formaldehyde–0.1 M phosphate buffer (pH 7.3) for 10 min. They were then washed with cytoskeletal buffer followed by permeabilization for 5 min with Triton-X100 0.5%. Cells were blocked with 3% bovine serum albumin for 1 hour. […] The samples were washed with PBS and incubated with anti-rabbit IgG conjugated with fluorescein (1:100) from Sigma-Aldrich for 1 hour. Finally, nuclei were stained with DAPI for 5 minutes and mounted in Dako fluorescence mounting media. The cells were photographed and ten pictures per well were obtained; images were analyzed using ImageJ software (ImageJ 1.47v).

[4] = tested on: E-selectin, ICAM-1 and VCAM-1 expression on T. cruzi-infected EA.hy926 and HUVEC cells; experiment: Endothelial cell adhesion molecule surface expression by flow cytometry / immunofluorescence; type: cell-based, human; conditions: 5 μM simvastatin or 20 μM benznidazole for 24 hours before 16 hours T. cruzi infection (MOI 10); EA.hy926 and HUVEC
Description: Then, cells were infected with trypomastigotes at a MOI of 10 and incubated for 16 hours. Cells were detached with 1X EDTA-PBS at 0.5 mM. The harvested cells were washed with cold PBS and centrifuged at 800 x g for 5 minutes. Then, cells were washed with flow cytometry buffer three times. 100 μL of cell suspensions were incubated for 45 min at 4°C in the dark with mouse monoclonal anti- human E-selectin (5 μL undiluted), ICAM-1(3 μL undiluted), and VCAM-1 (1 μL undiluted) that were conjugated with PE, FITC and APC, respectively (BioLegend, USA). Cell suspensions were analyzed by flow cytometry using a FACSAria-III flow cytometer (BD Biosciences, USA). A homogeneous cell population was selected by size vs. granularity in log scale for these two conditions.
2x10^4 EA.hy926 cells/slide were seeded in Lab-Tek II Chamber Slide^TM (ThermoScientific, USA) and allowed to adhere overnight. […] After 16 hours of infection, cells were fixed in 4% formaldehyde–0.1 M phosphate buffer (pH 7.3) for 10 min. Cells were blocked with 3% bovine serum albumin for 1 hour. Then, cells were incubated with monoclonal antibodies against E-selectin (1:100), VCAM-1 (1:250) and ICAM-1 (1:100) (from Abcam, UK) overnight at 4°C. The samples were washed with PBS and incubated with anti-rabbit IgG that had been conjugated with fluorescein (1:100) from Sigma-Aldrich for 1 h. Finally, nuclei were stained with DAPI for 5 minutes and mounted with Dako Fluorescence Mounting (Dako, USA). The cells were photographed using a Nikon Eclipse 400 fluorescence microscope (Nikon, Japan), and images were analyzed by mean intensity using ImageJ software (ImageJ 1.47v).

| Structure (SMILES) | Epimastigote proliferation (T. cruzi epimastigotes) | 15-epi-lipoxin A4 concentration (Mean ± SD) ([1]; 3 hours) | 15-epi-lipoxin A4 concentration (Mean ± SD) ([1]; 6 hours) | 15-epi-lipoxin A4 concentration (Mean ± SD) ([1]; 12 hours) | 15-epi-lipoxin A4 concentration (Mean ± SD) ([1]; 24 hours) | 15-epi-LXA4 levels with drug alone ([2]; 5 μM simvastatin, EA.hy926 without T. cruzi) | 15-epi-LXA4 production in T. cruzi-infected endothelial cells [2] | IC50 (Trypomastigotes Dm28c; MTT assay, 24 hours incubation, mean ± SD, n = 3) | Nuclear p65 localization [3] | E-selectin, ICAM-1 and VCAM-1 surface expression [4] | IC50 (Trypomastigotes Dm28c; 24 h) |
| --- | --- | --- | --- | --- | --- | --- | --- | --- | --- | --- | --- |
| CCC(C)(C)C(=O)O[C@H]1C[C@@H](C)C=C2C=C[C@H](C)[C@H](CC[C@@H]3C[C@@H](O)CC(=O)O3)[C@H]21 [Simvastatin] | decreased epimastigote proliferation | 1.58 ± 0.21 ng/mL | 3.58 ± 1.22 ng/mL | 37.28 ± 11.23 ng/mL | 326 ± 34.25 ng/mL | rose slightly | induced 15-epi-LXA4 | 4.2 ± 1.06 µM |  |  |  |
| O=C(Cn1ccnc1[N+](=O)[O-])NCc1ccccc1 [Benznidazole] |  |  |  |  |  |  | did not induce |  | decreased nuclear p65 localization | prevent cell adhesion molecule expression | 20.8 ± 1.35 µM |
